Source: patent publication US5582981A, “Method for identifying an oligonucleotide aptamer specific for a target” (priority 1994, dated 1996)

Test system: thrombin
Assay: clotting time for thrombin-catalyzed conversion of fibrinogen to fibrin
Assay type: biochemical
Conditions: thrombin 10 nM, 7 mer at 20 μM; thrombin alone 24 sec
Protocol: Clotting time for the thrombin-catalyzed conversion of fibrinogen (2.0 mg/ml in selection buffer) to fibrin at 37° C. was measured using a precision coagulation timer apparatus (Becton-Dickinson, Cat. nos. 64015, 64019, 64020). Thrombin (10 nM) incubated with fibrinogen alone clotted in 40 sec, thrombin incubated with fibrinogen and P1 nuclease (Boehringer-Mannheim, Indianapolis, Ind.) clotted in 39 sec, thrombin incubated with fibrinogen and aptamer clone #5 (200 nM) clotted in 115 sec, and thrombin incubated with fibrinogen, clone #5 (200 nM) and P1 nuclease clotted in 40 sec. All incubations were carried out at 37° C. using reagents prewarmed to 37° C. Aptamer DNA or, when present, P1 nuclease, was added to the fibrinogen solution prior to addition of thrombin.
Inhibition of thrombin activity was studied using a consensus-related sequence 7 mer, 5' GGTTGGG 3' (SEQ ID NO: 15), and a control 7 mer with the same base composition but different sequence (5' GGGGGTT 3') (SEQ ID NO: 16). Clotting times were measured using the timer apparatus as above. The thrombin clotting time in this experiment was 24 sec using thrombin alone (10 nM), 26 sec with thrombin and the control sequence at 20 μM and 38 sec with thrombin plus the consensus sequence at 20 μM, indicating specificity for thrombin inhibition at the level of the 7 mer.

“5' GGGGGTT 3' (chemistry not given here) [SEQ ID NO: 16]” showed a thrombin clotting time of 26 s.

“5' GGTTGGG 3' (chemistry not given here) [SEQ ID NO: 15]” was tested, and the thrombin clotting time was 38 s.
